Laboratory results published in patent US9750724B2, “Use of an aromatase inhibitor for the treatment of hypogonadism and related diseases” (Mereo BioPharma 2 Limited, priority 2011, dated 2017).
Like-named read-outs stand apart in the source and are kept apart here.

Key:
[1] = Single ascending dose study in pre- and post-menopausal women, pharmacokinetics; type: in vivo, human; details: for AUC(0-t): AUC (0-tlast) Mean; for Cmax: Cmax Mean
Description: The drug concentration in plasma and/or serum samples can be determined by a number of different ways, e.g. HPLC or LC-MS/MS analyses. […]
A minimal toxic dose (MTD) was not reached. […] Table 3 presents the PK parameters based on preliminary analysis of the concentration-time profile obtained from this study.

[2] = tested on: serum testosterone and estradiol; test: 12 week open label dose-finding study (Part 1) in obese hypogonadotropic hypogonadal men; type: in vivo, human
Description: The study is designed as a 2-part study, with Part 1 being open-label to best determine the appropriate dose levels to use in Part 2, which has a randomized, double-blind, placebo controlled design.
As set out above, this is a two-part study in obese, hypogonadotropic hypogonadal (OHH) men, wherein Part 1 is a single group, open label, non-randomized study establishing appropriate dosing. After all subjects have successfully completed 4 weeks of treatment, they continue for up to a total of 12 weeks of treatment. Then Part 2 follows as a parallel group, randomized, double-blind, placebo-controlled design, for 12 weeks of treatment, with an interim analysis after 4 weeks of treatment. Both Parts of the study have up to a 28 day screening period, a single baseline day, a 12 week treatment period (11 weekly doses), followed by a 3 month follow-up period.
Thus, for Part 1 of the study, it was decided to start with 0.01 mg as the loading dose, assess the testosterone response at 5 or 6 days after a single dose, and adjust the next weekly dose up or down based on the acute testosterone response. The weekly maintenance dose is not expected to exceed 0.5 mg. For at least the first 4 weeks of treatment, subject's sex steroid levels are measured prior to their subsequent dosing. The subsequent dose is the adjusted based on the prior response.
If free testosterone is above normal, the Week 2 dose will be 1/10 (0.001 mg) of the loading dose. If free testosterone is below normal, the Week 2 dose will be ½ of the loading dose (0.005 mg). Subsequent weekly doses are adjusted on a ½ log order to achieve normalization of free testosterone levels.
Assessments and evaluations: The following assessments will be performed during the study: • 1. Background, demographic and administrative assessments • Inclusion/exclusion criteria; Relevant medical history/Current medical conditions • Demography • Physical examination, including digital prostate examination • International Prostate Symptom Score (IPSS) • Hepatitis screen, HIV screen • Alcohol test, Drug screen • Prolactin, ferritin and thyroid stimulating hormone (TSH) • Drug administration: each time study drug is administered • Study Completion information • Comments • 2. Safety and tolerability assessments • Vital signs and body measurements • Body height (BMI will be calculated) • Body weight* • Body temperature • Blood pressure, pulse rate • ECG evaluations • Hematology; Blood chemistry; Urinalysis • Prostate specific antigen (PSA) • Adverse events: from time of first administration of study drug until Study Completion. Adverse events occurring before starting study treatment but after signing the informed consent form are recorded on the Medical History/Current Medical Conditions Case Report Form. • Serious adverse events: from time of consent until 30 days after Study Completion • Concomitant medications/Significant non-drug therapies: Refer to entry criteria and Concomitant medication for details of recording requirements for allowed and restricted medications during the study. • 3. Pharmacokinetic (PK) blood assessments: PK samples will be collected on multiple occasions during the treatment phase of the study. PK assessments will also be collected every 6 weeks during the safety follow-up period. […]

[3] = molecular target: T1, human placental microsomal aromatase (Homo sapiens, UniProt P11511); details: microsomal fraction of human placenta; Batzl-Hartmann et al, 1994; cited from earlier work
T1 construct: from tissue; host or cells: human placenta, microsomal fraction
T1 sequence (P11511 1-503): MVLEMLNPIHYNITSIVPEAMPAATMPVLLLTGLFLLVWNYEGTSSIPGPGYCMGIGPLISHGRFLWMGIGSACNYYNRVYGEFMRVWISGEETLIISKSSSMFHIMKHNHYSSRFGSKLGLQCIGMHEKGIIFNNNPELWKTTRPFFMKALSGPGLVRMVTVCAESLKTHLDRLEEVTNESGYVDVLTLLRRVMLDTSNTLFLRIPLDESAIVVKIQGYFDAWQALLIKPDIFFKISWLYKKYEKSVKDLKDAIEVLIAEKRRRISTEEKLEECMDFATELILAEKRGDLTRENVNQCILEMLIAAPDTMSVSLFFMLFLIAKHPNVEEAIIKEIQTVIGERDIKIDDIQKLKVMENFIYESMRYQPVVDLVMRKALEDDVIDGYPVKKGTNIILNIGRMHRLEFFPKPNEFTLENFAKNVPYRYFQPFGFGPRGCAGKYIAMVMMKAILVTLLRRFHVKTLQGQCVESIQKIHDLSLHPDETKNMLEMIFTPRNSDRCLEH

[4] = previous rat experiments; Batzl-Hartmann 1994, Bhatnagar 1996; cited from earlier work
[5] = female, human, in vivo, 0.01 mg
[6] = female, human, in vivo, 0.03 mg
[7] = weekly oral doses 0.003 mg to 5 mg

## N#Cc1ccc(C(F)(c2ccc(C#N)cc2)n2cncn2)cc1 [CGP47645, 4,4′-[fluoro-(1-H-1,2,4-triazol-1-yl)methylene]bisbenzonitrile]
[1]; [5]
  Tmax: 0.0417 days
  AUC(0-t): 1.4 ng·h/mL
  Cmax: 0.2 ng/mL
[1]; female, human, in vivo, 0.01 mg, T1/2 Mean
  half-life: 2.3 days
[1]; [6]
  AUC(0-t): 24.1 ng·h/mL
  Cmax: 0.4 ng/mL
[1]; female, human, in vivo, 0.03 mg, T1/2 Mean
  half-life: 16.5 days
[1]; female, human, in vivo, 0.1 mg
  T1/2 Mean: 23.5 days
  Tmax: 0.0417 days
  Tmax Median: 0.042 days
  AUC(0-t): 123 ng·h/mL
  Cmax: 1.8 ng/mL
[1]; female, human, in vivo, 0.1 mg, T1/2 Mean
  half-life: 18.2 days
[1]; female, human, in vivo, 0.3 mg
  Tmax: 0.0417 days
  AUC(0-t): 605 ng·h/mL
  Cmax: 5.1 ng/mL
[1]; female, human, in vivo, 0.3 mg, T1/2 Mean
  half-life: 23.5 days
[1]; female, human, in vivo, 1 mg
  Tmax: 0.0417 days
  AUC(0-t): 3200 ng·h/mL
  Cmax: 12.8 ng/mL
[1]; female, human, in vivo, 1 mg, T1/2 Mean
  half-life: 22.4 days
[1]; female, human, in vivo, 3 mg
  Tmax: 0.0417 days
  AUC(0-t): 10100 ng·h/mL
  Cmax: 38.4 ng/mL
[1]; female, human, in vivo, 3 mg, T1/2 Mean
  half-life: 25 days
[1]; female, human, in vivo, 10 mg
  Tmax: 0.0833 days
  AUC(0-t): 41700 ng·h/mL
  Cmax: 124 ng/mL
[1]; female, human, in vivo, 10 mg, T1/2 Mean
  half-life: 27.3 days
[1]; female, human, in vivo, 20 mg
  Tmax: 0.0833 days
  AUC(0-t): 76700 ng·h/mL
  Cmax: 270 ng/mL
[1]; female, human, in vivo, 20 mg, T1/2 Mean
  half-life: 26.9 days
[1]; female, human, in vivo, half life
  half-life: ~25 days
[1]; female, human, in vivo, half-life in serum
  half-life: 22 to 29 days
[1]; female, human, in vivo, po
  Tmax: 0.021 to 0.083 days
  median Tmax: ≤ 0.042 days
[1]; female, human, in vivo, po, half-life
  half-life: 23 to 27 days
[1]; in vivo
  differences in pharmacokinetics between post- and pre-menopausal women: No differences
[1]; single doses 0.01 to 20 mg, women
  dose proportionality of pharmacokinetics: dose proportional pharmacokinetics
[2]; 14 obese hypogonadal men, weekly oral doses 0.003 mg to 5 mg, 12 weeks
  tolerability: tolerated CGP47645 well
[2]; 14 obese hypogonadal men, weekly oral doses 0.003 mg to 5 mg, during treatment
  testosterone normalization (RIA): rose in all men individually into the normal range
[2]; baseline 24±4.9 pg/mL, LC-MS
  average serum estradiol at week 12: 18 ± 9.4 pg/mL
[2]; baseline 250±22.3 ng/dL, RIA
  average testosterone at week 12: 550 ± 191.8 ng/dL
[2]; [7]
  average change of testosterone from baseline to week 12: approximately 2 fold
  reduction of serum estradiol (LC-MS): 30-50%
[3]
  mode of aromatase inhibition: competitive inhibitor
[4]
  half-life: about a week
